Assay results: the supplement of paper PMC6045584
± gives the standard deviation of the averaged measurements.

Tests used:
NILOTINIB = compound: Cc1cn(-c2cc(NC(=O)c3ccc(C)c(Nc4nccc(-c5cccnc5)n4)c3)cc(C(F)(F)F)c2)cn1 [NILOTINIB]; experiment: surviving fraction relative to DMSO-only wells; higher = less growth inhibition; conditions: exposure time: 5 days
How it was run: (§1)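 Surviving fraction is CellTiter-Glo luminescence divided by the median of wells given DMSO only. For this, log-phase tumour cell lines went into 384-well plates at 250–500 cells per well and, 24 hours later, into five days of continuous inhibitor exposure at 0.5, 1, 5, 10, 50, 100, 500 and 1000 nM. Lines were screened three times and retained only if replicate Pearson r >0.7 and median Z' >0.3.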

VORINOSTAT = compound: O=C(CCCCCCC(=O)Nc1ccccc1)NO [VORINOSTAT]; experiment: as above; conditions: exposure time: 5 days
How it was run: as §1

Test System | surviving fraction (NILOTINIB; 0.5 nM) | surviving fraction (NILOTINIB; 1 nM) | surviving fraction (NILOTINIB; 5 nM) | surviving fraction (NILOTINIB; 10 nM) | surviving fraction (NILOTINIB; 50 nM) | surviving fraction (NILOTINIB; 100 nM) | surviving fraction (NILOTINIB; 500 nM) | surviving fraction (NILOTINIB; 1000 nM) | surviving fraction (VORINOSTAT; 0.5 nM) | surviving fraction (VORINOSTAT; 1 nM) | surviving fraction (VORINOSTAT; 5 nM) | surviving fraction (VORINOSTAT; 10 nM) | surviving fraction (VORINOSTAT; 50 nM) | surviving fraction (VORINOSTAT; 100 nM) | surviving fraction (VORINOSTAT; 500 nM) | surviving fraction (VORINOSTAT; 1000 nM)
HCC1395 BREAST | 1.01 ± 0.038 | 0.988 ± 0.097 | 1.2 ± 0.074 | 1.19 ± 0.023 | 1.03 ± 0.055 | 1.03 ± 0.16 | 0.854 ± 0.062 | 0.929 ± 0.14 | 1.1 ± 0.23 | 1.05 ± 0.16 | 1.31 ± 0.066 | 1.11 ± 0.11 | 1.25 ± 0.11 | 1.21 ± 0.042 | 1.03 ± 0.11 | 0.94 ± 0.1
HCC1806 BREAST | 0.977 ± 0.016 | 0.97 ± 0.048 | 1.1 ± 0.14 | 1.02 ± 0.067 | 0.844 ± 0.088 | 0.755 ± 0.083 | 0.666 ± 0.044 | 0.781 ± 0.026 | 1.13 ± 0.16 | 0.721 ± 0.61 | 0.825 ± 0.54 | 0.77 ± 0.64 | 1.18 ± 0.051 | 1.24 ± 0.16 | 0.852 ± 0.073 | 0.527 ± 0.089
HCC1954 BREAST | 0.917 ± 0.15 | 0.891 ± 0.032 | 0.936 ± 0.059 | 0.969 ± 0.019 | 0.589 ± 0.0085 | 0.677 ± 0.12 | 0.8063 ± 0.0032 | 0.739 ± 0.077 | 0.802 ± 0.19 | 0.823 ± 0.26 | 1.07 ± 0.36 | 1.18 ± 0.13 | 1.345 ± 0.0064 | 1.37 ± 0.21 | 0.839 ± 0.022 | 0.42875 ± 0.00035
HCT15 LARGE INTESTINE | 1.05 ± 0.082 | 1.01 ± 0.071 | 1.07 ± 0.12 | 1.09 ± 0.12 | 1.09 ± 0.1 | 1.12 ± 0.037 | 1.05 ± 0.11 | 1.06 ± 0.091 | 0.9863 ± 0.0055 | 0.938 ± 0.023 | 0.963 ± 0.044 | 0.867 ± 0.067 | 1.05 ± 0.028 | 1.06 ± 0.03 | 0.98 ± 0.019 | 0.674 ± 0.056
HELA CERVIX | 1.05 ± 0.016 | 1.03 ± 0.053 | 1.09 ± 0.034 | 1 ± 0.033 | 1.09 ± 0.079 | 1.06 ± 0.073 | 1.15 ± 0.074 | 1.091 ± 0.0094 | 0.955 ± 0.049 | 0.942 ± 0.066 | 0.972 ± 0.042 | 0.939 ± 0.07 | 1.07 ± 0.057 | 1.06 ± 0.064 | 1.11 ± 0.037 | 1.01 ± 0.092
HOS BONE | 1.05 ± 0.024 | 1.014 ± 0.0049 | 1.05 ± 0.033 | 1.05 ± 0.025 | 1.065 ± 0.0095 | 1.04 ± 0.026 | 1.03 ± 0.025 | 1.02 ± 0.041 | 0.957 ± 0.017 | 1 ± 0.022 | 0.9643 ± 0.0076 | 0.989 ± 0.017 | 1.05 ± 0.019 | 1.07 ± 0.029 | 0.948 ± 0.034 | 0.967 ± 0.021
HOSMNG BONE | 0.898 ± 0.073 | 0.97 ± 0.062 | 0.956 ± 0.044 | 0.937 ± 0.039 | 1.03 ± 0.03 | 0.957 ± 0.064 | 1.07 ± 0.029 | 1.22 ± 0.018 | 0.994 ± 0.12 | 0.94 ± 0.091 | 0.996 ± 0.17 | 1.06 ± 0.064 | 0.999 ± 0.048 | 1.09 ± 0.063 | 1.06 ± 0.023 | 1.09 ± 0.02
HSSYII SYNOVIAL | 0.907 ± 0.018 | 1 ± 0.033 | 0.973 ± 0.015 | 0.987 ± 0.052 | 0.9 ± 0.061 | 0.954 ± 0.029 | 0.874 ± 0.029 | 0.785 ± 0.036 | 0.913 ± 0.023 | 0.87 ± 0.025 | 0.927 ± 0.044 | 0.873 ± 0.016 | 1.06 ± 0.25 | 0.858 ± 0.066 | 0.436 ± 0.012 | 0.201 ± 0.011
HT1080 SOFT TISSUE | 1.02 ± 0.058 | 1.04 ± 0.032 | 1.06 ± 0.027 | 1.04 ± 0.011 | 0.991 ± 0.02 | 0.978 ± 0.027 | 0.98 ± 0.027 | 0.957 ± 0.027 | 1.02 ± 0.046 | 1.02 ± 0.015 | 1.05 ± 0.039 | 1.02 ± 0.034 | 0.951 ± 0.028 | 0.914 ± 0.017 | 0.671 ± 0.048 | 0.418 ± 0.029
HU09 BONE | 0.958 ± 0.043 | 1.06 ± 0.1 | 0.999 ± 0.096 | 1.09 ± 0.051 | 0.861 ± 0.19 | 0.756 ± 0.067 | 0.481 ± 0.014 | 0.397 ± 0.075 | 0.943 ± 0.054 | 0.922 ± 0.041 | 0.931 ± 0.095 | 0.969 ± 0.053 | 1.01 ± 0.092 | 0.968 ± 0.13 | 0.721 ± 0.072 | 0.4 ± 0.013
